For the assay, the target named is Serine/threonine-protein phosphatase PP1-alpha catalytic subunit (Homo sapiens) (UniProt P62136). The experiment in a line: dose-dependent inhibition of PP1 catalytic subunit – biochemical, 32P-phosphohistone, radiolabel, dose response, round 5, selectivity assay for PP5 inhibitor project, late-stage follow-up (AID 624446). Conditions: purified PP1alpha, 32P-phosphohistone dephosphorylation, scintillation.

Activity calls are given as the source filed them.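 The calls were made as follows: active = compounds blocking protein phosphatase 1 with half-maximal inhibitory concentration IC50 under 50 µM; inactive = IC50 of 50 µM or more.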

Sequence of Serine/threonine-protein phosphatase PP1-alpha catalytic subunit (Homo sapiens) (P62136 whole entry, looked up): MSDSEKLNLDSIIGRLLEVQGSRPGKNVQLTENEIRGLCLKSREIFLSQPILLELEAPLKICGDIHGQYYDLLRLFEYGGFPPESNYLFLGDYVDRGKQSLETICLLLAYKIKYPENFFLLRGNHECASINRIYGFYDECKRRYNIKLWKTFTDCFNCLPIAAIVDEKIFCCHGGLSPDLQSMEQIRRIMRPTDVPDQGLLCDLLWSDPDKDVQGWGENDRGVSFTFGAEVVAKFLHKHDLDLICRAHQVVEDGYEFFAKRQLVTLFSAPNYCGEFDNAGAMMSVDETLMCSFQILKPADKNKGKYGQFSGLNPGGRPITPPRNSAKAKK

As for `CC(C)Oc1ccccc1-c1n[nH]nc1C(=O)O`, the IC50 entry was “inactive”.

The record behind these values is PubChem BioAssay AID624446 (The Scripps Research Institute Molecular Screening Center, 2012).
